Source: US20230124862A1, “BISMUTH THIOL COMPOUNDS AND COMPOSITIONS AND METHODS OF TREATING MICROBIAL CO-INFECTIONS” (Microbion Corporation, priority 2020, published 2023)
Values joined by “and” are separate entries in the source; they are usually repeats but may differ in a detail not shown here. Equal values may be shown once. Read-outs that look alike come from different tables or passages of the source.

Format: in vivo, beagle dogs
Protocol: Once adequately conditioned to the restraint device and face-masks, the animals are individually exposed to the test article aerosols. Animals receive a single face-mask inhalation exposure in a ramp study design to test article aerosols for up to 60 min. Animal observations during and post exposure determine the tolerance of inhaled BisEDT aerosols.
Blood Collections and Bioanalytical Analysis: Blood are collected for pharmacokinetic (PK) analysis prior to exposure, then at 4 hr (±5 min) post exposure, and again on Day 1, Day 2, Day 7 (pre- and 4 hr (±5 min)-post exposure), Day 8, Day 9, Day 10, Day 11, Day 12, Day 13, and Day 14. A total of 0.25 mL is collected at each timepoint. No PK blood is collected from the vehicle control (Group 1) animals; only animals exposed to BisEDT have blood collected for PK analysis. Collected samples are flash frozen without processing for shipment to Medpace for bioanalytical analysis. Additional blood is collected from all animals in all groups for hematology (1 mL) and clinical chemistry (1 mL) at baseline, Day 7 (pre-exposure), and again at euthanasia. Blood (2-2 mL) is collected from all animals at necropsy for coagulation analysis (d-Dimer, fibrinogen, PT, and PTT).
For clinical chemistry analyses, whole blood (1 mL) is placed into serum separator or clot tube and […] by centrifugation at a minimum of 1300 g at 2 to 8° C. for 10 (±1) min. Plasma samples are stored at −70 to −90° C. until analysis.
Clinical chemistry samples are analyzed on a Hitachi Modular Analytics Clinical Chemistry System (Roche Diagnostics, Indianapolis, Ind.).

Compound: C1C[S][Bi]([S]CC[S][Bi]2[S]CC[S]2)[S]1 [BisEDT, Bismuth-1,2-ethanedithiol]
- GGT (dog 4002 Female): 3 IU/L
- GLOB (dog 4002 Female): 2.1 g/dL and 2.0 g/dL
- GLUC (dog 4002 Female): 106 mg/dL and 79 mg/dL
- K (dog 4002 Female): 5.3 mmo/L
- Na (dog 4002 Female): 153 mmo/L and 149 mmo/L
- TBIL (dog 4002 Female): 0.15 mg/dL
- TP (dog 4002 Female): 5.6 g/dL and 5.5 g/dL
- TRIG (dog 4002 Female): 34 mg/dL and 41 mg/dL
- AGR (dog 4003 Male): 1.8 and 1.6
- ALB (dog 4003 Male): 3.5 g/dL and 3.3 g/dL
- ALPK (dog 4003 Male): 146 IU/L and 129 IU/L
- ALT (dog 4003 Male): 40 IU/L and 23 IU/L
- AST (dog 4003 Male): 30 IU/L and 33 IU/L
- BUN (dog 4003 Male): 16 mg/dL and 15 mg/dL
- CA2 (dog 4003 Male): 11.2 mg/dL and 11.0 mg/dL
- CHOL (dog 4003 Male): 152 mg/dL and 176 mg/dL
- CREA (dog 4003 Male): 0.6 mg/dL and 0.7 mg/dL
- Cl (dog 4003 Male): 117 mmo/L and 112 mmo/L
- GGT (dog 4003 Male): 3 IU/L
- GLOB (dog 4003 Male): 1.9 g/dL and 2.1 g/dL
- GLUC (dog 4003 Male): 109 mg/dL and 81 mg/dL
- K (dog 4003 Male): 4.9 mmo/L
- Na (dog 4003 Male): 149 mmo/L and 147 mmo/L
- TBIL (dog 4003 Male): 0.15 mg/dL
- TP (dog 4003 Male): 5.4 g/dL
- TRIG (dog 4003 Male): 55 mg/dL and 53 mg/dL
- AGR (dog 4004 Female): 2.0 and 1.7 and 1.9
- ALB (dog 4004 Female): 3.4 g/dL and 3.3 g/dL
- ALPK (dog 4004 Female): 103 IU/L and 93 IU/L and 95 IU/L
- ALT (dog 4004 Female): 28 IU/L and 25 IU/L and 24 IU/L
- AST (dog 4004 Female): 33 IU/L and 38 IU/L and 31 IU/L
- BUN (dog 4004 Female): 13 mg/dL
- CA2 (dog 4004 Female): 10.8 mg/dL and 10.6 mg/dL
- CHOL (dog 4004 Female): 125 mg/dL and 124 mg/dL and 112 mg/dL
- CREA (dog 4004 Female): 0.6 mg/dL
- Cl (dog 4004 Female): 119 mmo/L and 115 mmo/L and 114 mmo/L
- GGT (dog 4004 Female): 3 IU/L
- GLOB (dog 4004 Female): 1.7 g/dL and 1.9 g/dL
- GLUC (dog 4004 Female): 102 mg/dL and 70 mg/dL and 96 mg/dL
- K (dog 4004 Female): 4.6 mmo/L and 5.1 mmo/L and 4.3 mmo/L
- Na (dog 4004 Female): 153 mmo/L and 148 mmo/L and 146 mmo/L
- TBIL (dog 4004 Female): 0.15 mg/dL
- TP (dog 4004 Female): 5.1 g/dL and 5.2 g/dL and 5.0 g/dL
- TRIG (dog 4004 Female): 53 mg/dL and 49 mg/dL and 44 mg/dL
- AGR (dogs, Grp 2 Avg): 1.8 and 2.2 and 2.1
- ALB (dogs, Grp 2 Avg): 3.3 g/dL and 3.5 g/dL and 3.6 g/dL
- ALPK (dogs, Grp 2 Avg): 186 IU/L and 126 IU/L and 116 IU/L
- ALT (dogs, Grp 2 Avg): 20 IU/L and 26 IU/L and 25 IU/L
- AST (dogs, Grp 2 Avg): 42 IU/L and 39 IU/L and 37 IU/L
- BUN (dogs, Grp 2 Avg): 13 mg/dL and 15 mg/dL
- CA2 (dogs, Grp 2 Avg): 10.9 mg/dL and 10.8 mg/dL
- CHOL (dogs, Grp 2 Avg): 153 mg/dL and 145 mg/dL and 133 mg/dL
- CREA (dogs, Grp 2 Avg): 0.7 mg/dL and 0.6 mg/dL
- Cl (dogs, Grp 2 Avg): 110 mmo/L and 114 mmo/L and 111 mmo/L
- GGT (dogs, Grp 2 Avg): 3 IU/L
- GLOB (dogs, Grp 2 Avg): 1.8 g/dL and 1.7 g/dL
- GLUC (dogs, Grp 2 Avg): 93 mg/dL and 98 mg/dL and 96 mg/dL
- K (dogs, Grp 2 Avg): 4.8 mmo/L and 5.1 mmo/L and 4.7 mmo/L
- Na (dogs, Grp 2 Avg): 149 mmo/L and 147 mmo/L and 148 mmo/L
- TBIL (dogs, Grp 2 Avg): 0.15 mg/dL
- TP (dogs, Grp 2 Avg): 5.1 g/dL and 5.2 g/dL and 5.4 g/dL
- TRIG (dogs, Grp 2 Avg): 52 mg/dL and 60 mg/dL and 47 mg/dL
- AGR (dogs, Grp 3 Avg): 2.2 and 1.9 and 2.4
- ALB (dogs, Grp 3 Avg): 3.4 g/dL and 3.5 g/dL and 3.6 g/dL
- ALPK (dogs, Grp 3 Avg): 153 IU/L and 113 IU/L and 149 IU/L
- ALT (dogs, Grp 3 Avg): 27 IU/L and 22 IU/L and 21 IU/L
- AST (dogs, Grp 3 Avg): 30 IU/L and 32 IU/L
- CA2 (dogs, Grp 3 Avg): 11.0 mg/dL and 10.7 mg/dL and 10.2 mg/dL
- CHOL (dogs, Grp 3 Avg): 113 mg/dL and 143 mg/dL and 126 mg/dL
- CREA (dogs, Grp 3 Avg): 0.6 mg/dL and 1.0 mg/dL
- Cl (dogs, Grp 3 Avg): 112 mmo/L and 110 mmo/L
- GGT (dogs, Grp 3 Avg): 3 IU/L
- GLOB (dogs, Grp 3 Avg): 1.6 g/dL and 1.9 g/dL and 1.5 g/dL
- GLUC (dogs, Grp 3 Avg): 106 mg/dL and 89 mg/dL and 58 mg/dL
- K (dogs, Grp 3 Avg): 5.1 mmo/L and 5.2 mmo/L and 5.9 mmo/L
- Na (dogs, Grp 3 Avg): 148 mmo/L and 146 mmo/L and 149 mmo/L
- TBIL (dogs, Grp 3 Avg): 0.15 mg/dL
- TP (dogs, Grp 3 Avg): 4.9 g/dL and 5.3 g/dL and 5.1 g/dL
- TRIG (dogs, Grp 3 Avg): 30 mg/dL and 39 mg/dL and 55 mg/dL
- AGR (dogs, Grp 4 Avg): 2.2 and 1.8 and 1.9
- ALB (dogs, Grp 4 Avg): 3.5 g/dL and 3.4 g/dL and 3.3 g/dL
- ALPK (dogs, Grp 4 Avg): 103 IU/L and 104 IU/L and 107 IU/L
- ALT (dogs, Grp 4 Avg): 28 IU/L and 26 IU/L
- AST (dogs, Grp 4 Avg): 33 IU/L and 39 IU/L
- BUN (dogs, Grp 4 Avg): 12 mg/dL and 13 mg/dL
- CA2 (dogs, Grp 4 Avg): 10.8 mg/dL and 10.7 mg/dL and 10.5 mg/dL
- CHOL (dogs, Grp 4 Avg): 139 mg/dL and 136 mg/dL and 112 mg/dL
- CREA (dogs, Grp 4 Avg): 0.7 mg/dL and 0.6 mg/dL
- Cl (dogs, Grp 4 Avg): 120 mmo/L and 116 mmo/L and 114 mmo/L
- GGT (dogs, Grp 4 Avg): 3 IU/L
- GLOB (dogs, Grp 4 Avg): 1.7 g/dL and 1.9 g/dL
- GLUC (dogs, Grp 4 Avg): 102 mg/dL and 76 mg/dL and 91 mg/dL
- K (dogs, Grp 4 Avg): 4.7 mmo/L and 5.0 mmo/L and 4.5 mmo/L
- Na (dogs, Grp 4 Avg): 153 mmo/L and 148 mmo/L and 146 mmo/L
- TBIL (dogs, Grp 4 Avg): 0.15 mg/dL
- TP (dogs, Grp 4 Avg): 5.2 g/dL and 5.3 g/dL and 5.0 g/dL
- TRIG (dogs, Grp 4 Avg): 51 mg/dL and 48 mg/dL and 42 mg/dL
